Assays:
Type in all cases: in vivo
[1] = tested on: redroot pigweed (Amaranthus retroflexus, AMARE); experiment: Pre-emerge test, greenhouse herbicide activity screening; settings: rated 14 days after application, 0 = no damage, 100 = complete death
Procedure, shortened: (§1)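 Visual ratings on a 0-100 scale (0 no damage, 100 all plants dead) were taken at 14 days after treatment. Rates of 15-1000 g ai/ha in acetone, 187 l/ha, were sprayed onto soil one day after planting (pre-emerge) or onto 2-3 leaf plants with 0.25% v/v surfactant (post-emerge).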

[2] = tested on: redroot pigweed (Amaranthus retroflexus, AMARE); experiment: Post-emerge test, greenhouse herbicide activity screening; settings: post-emerge, 14 days after application, rating scale 0-100
Procedure, shortened: (§2)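 Applied at 15–1000 g ai/ha from acetone in 187 l/ha spray volume. Post-emergence applications included 0.25% v/v non-ionic surfactant and reached plants sown 8–21 days before. Pre-emergence applications were incorporated by surface watering. Efficacy or crop damage was rated on a 0–100 scale after 14 days.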

[3] = tested on: velvetleaf (Abutilon theophrasti, ABUTH); experiment: as above; settings: post-emerge, 14 days after application, rating scale 0-100
Procedure, shortened: as §2

[4] = tested on: green foxtail (Setaria viridis, SETVI); experiment: as above; settings: post-emerge, 14 days after application, rating scale 0-100
Procedure, shortened: as §2

[5] = tested on: lambsquarters (Chenopodium album, CHEAL); experiment: as above; settings: post-emerge, 14 days after application, rating scale 0-100
Procedure, shortened: as §2

[6] = tested on: common ragweed (Ambrosia artemisizfolia L., AMBEL); experiment: as above; settings: post-emerge, 14 days after application, rating scale 0-100
Procedure, shortened: as §2

[7] = tested on: ivyleaf morningglory (Ipomoea hederacea, IPOHE); experiment: as above; settings: post-emerge, 14 days after application, rating scale 0-100
Procedure, shortened: as §2

[8] = tested on: large crabgrass (Digitaria sanguinalis, DIGSA); experiment: as above; settings: post-emerge, 14 days after application, rating scale 0-100
Procedure, shortened: as §2

[9] = tested on: sicklepod (Cassia obtusifolia, CASOB); experiment: as above; settings: post-emerge, 14 days after application, rating scale 0-100
Procedure, shortened: as §2

[10] = tested on: barnyardgrass (Echinochloa crus-galli, ECHCG); experiment: as above; settings: post-emerge, 14 days after application, rating scale 0-100
Procedure, shortened: as §2

[11] = tested on: johnsongrass (Sorghum halepense, SORHA); experiment: as above; settings: post-emerge, 14 days after application, rating scale 0-100
Procedure, shortened: as §2

[12] = tested on: velvetleaf (Abutilon theophrasti, ABUTH); experiment: Pre-emerge test, greenhouse herbicide activity screening; settings: rated 14 days after application, 0 = no damage, 100 = complete death
Procedure, shortened: as §1

[13] = tested on: green foxtail (Setaria viridis, SETVI); experiment: as above; settings: rated 14 days after application, 0 = no damage, 100 = complete death
Procedure, shortened: as §1

[14] = tested on: lambsquarters (Chenopodium album, CHEAL); experiment: as above; settings: rated 14 days after application, 0 = no damage, 100 = complete death
Procedure, shortened: as §1

[15] = tested on: common ragweed (Ambrosia artemisizfolia L., AMBEL); experiment: as above; settings: rated 14 days after application, 0 = no damage, 100 = complete death
Procedure, shortened: as §1

[16] = tested on: ivyleaf morningglory (Ipomoea hederacea, IPOHE); experiment: as above; settings: rated 14 days after application, 0 = no damage, 100 = complete death
Procedure, shortened: as §1

[17] = tested on: large crabgrass (Digitaria sanguinalis, DIGSA); experiment: as above; settings: rated 14 days after application, 0 = no damage, 100 = complete death
Procedure, shortened: as §1

[18] = tested on: sicklepod (Cassia obtusifolia, CASOB); experiment: as above; settings: rated 14 days after application, 0 = no damage, 100 = complete death
Procedure, shortened: as §1

[19] = tested on: barnyardgrass (Echinochloa crus-galli, ECHCG); experiment: as above; settings: rated 14 days after application, 0 = no damage, 100 = complete death
Procedure, shortened: as §1

[20] = tested on: johnsongrass (Sorghum halepense, SORHA); experiment: as above; settings: rated 14 days after application, 0 = no damage, 100 = complete death
Procedure, shortened: as §1

[21] = tested on: field corn (Zea mays L., var. Dekalb 535, CORN); experiment: Pre-emerge test, crop safety; settings: rated 14 days after application, 0 = no damage, 100 = complete death
Procedure, shortened: as §1

[22] = tested on: upland rice (Oryza sp., var. Tebonnet, RICE); experiment: Pre-emerge test, crop safety; settings: rated 14 days after application, 0 = no damage, 100 = complete death
Procedure, shortened: as §1

[23] = tested on: field corn (Zea mays L., var. Dekalb 535, CORN); experiment: Post-emerge test, crop safety; settings: post-emerge, 14 days after application, rating scale 0-100
Procedure, shortened: as §1

[24] = tested on: upland rice (Oryza sp., var. Tebonnet, RICE); experiment: Post-emerge test, crop safety; settings: post-emerge, 14 days after application, rating scale 0-100
Procedure, shortened: as §1

COc1c(Cl)cc(F)c(-n2c(=O)cc(C(F)(F)F)n(N)c2=O)c1NC(=O)c1ccc(F)cc1F [2-44]
10: phytotoxicity rating DIGSA ([8]; 250 g ai/ha) | phytotoxicity rating ECHCG ([10]; 250 g ai/ha) | Pre-emerge phytotoxicity rating (0-100), crop damage, CORN ([21]; 63 g ai/ha) | phytotoxicity rating RICE ([24]; 250 g ai/ha)
90: phytotoxicity rating AMARE ([2]; 250 g ai/ha) | phytotoxicity rating CHEAL ([5]; 250 g ai/ha) | phytotoxicity rating AMBEL ([6]; 250 g ai/ha) | Pre-emerge Herbicidal Activity, phytotoxicity rating (0-100), SETVI ([13]; 63 g ai/ha) | Pre-emerge Herbicidal Activity, phytotoxicity rating (0-100), IPOHE ([16]; 63 g ai/ha)
20: phytotoxicity rating CASOB ([9]; 63 g ai/ha) | Pre-emerge phytotoxicity rating (0-100), crop damage, RICE ([22]; 63 g ai/ha) | phytotoxicity rating CORN ([23]; 250 g ai/ha)
70: phytotoxicity rating CASOB ([9]; 250 g ai/ha) | Pre-emerge phytotoxicity rating (0-100), crop damage, CORN ([21]; 250 g ai/ha)
30: phytotoxicity rating SORHA ([11]; 250 g ai/ha) | Pre-emerge Herbicidal Activity, phytotoxicity rating (0-100), ECHCG ([19]; 63 g ai/ha)
95: Pre-emerge Herbicidal Activity, phytotoxicity rating (0-100), SORHA ([20]; 250 g ai/ha)
0: phytotoxicity rating SETVI ([4]; 63 g ai/ha) | phytotoxicity rating DIGSA ([8]; 63 g ai/ha) | phytotoxicity rating ECHCG ([10]; 63 g ai/ha) | phytotoxicity rating SORHA ([11]; 63 g ai/ha) | phytotoxicity rating CORN ([23]; 63 g ai/ha) | phytotoxicity rating RICE ([24]; 63 g ai/ha)
60: phytotoxicity rating CHEAL ([5]; 63 g ai/ha) | phytotoxicity rating AMBEL ([6]; 63 g ai/ha) | Pre-emerge Herbicidal Activity, phytotoxicity rating (0-100), DIGSA ([17]; 63 g ai/ha) | Pre-emerge Herbicidal Activity, phytotoxicity rating (0-100), CASOB ([18]; 63 g ai/ha)
80: Pre-emerge phytotoxicity rating (0-100), crop damage, RICE ([22]; 250 g ai/ha)
100: Pre-emerge Herbicidal Activity, phytotoxicity rating (0-100), AMARE ([1]; 63 g ai/ha) | Pre-emerge Herbicidal Activity, phytotoxicity rating (0-100), AMARE ([1]; 250 g ai/ha) | phytotoxicity rating ABUTH ([3]; 63 g ai/ha) | phytotoxicity rating ABUTH ([3]; 250 g ai/ha) | phytotoxicity rating IPOHE ([7]; 250 g ai/ha) | Pre-emerge Herbicidal Activity, phytotoxicity rating (0-100), ABUTH ([12]; 63 g ai/ha) | Pre-emerge Herbicidal Activity, phytotoxicity rating (0-100), ABUTH ([12]; 250 g ai/ha) | Pre-emerge Herbicidal Activity, phytotoxicity rating (0-100), SETVI ([13]; 250 g ai/ha) | Pre-emerge Herbicidal Activity, phytotoxicity rating (0-100), CHEAL ([14]; 63 g ai/ha) | Pre-emerge Herbicidal Activity, phytotoxicity rating (0-100), CHEAL ([14]; 250 g ai/ha) | Pre-emerge Herbicidal Activity, phytotoxicity rating (0-100), AMBEL ([15]; 63 g ai/ha) | Pre-emerge Herbicidal Activity, phytotoxicity rating (0-100), AMBEL ([15]; 250 g ai/ha) | Pre-emerge Herbicidal Activity, phytotoxicity rating (0-100), IPOHE ([16]; 250 g ai/ha) | Pre-emerge Herbicidal Activity, phytotoxicity rating (0-100), DIGSA ([17]; 250 g ai/ha) | Pre-emerge Herbicidal Activity, phytotoxicity rating (0-100), CASOB ([18]; 250 g ai/ha)
99: Pre-emerge Herbicidal Activity, phytotoxicity rating (0-100), ECHCG ([19]; 250 g ai/ha)
50: phytotoxicity rating AMARE ([2]; 63 g ai/ha) | phytotoxicity rating SETVI ([4]; 250 g ai/ha) | phytotoxicity rating IPOHE ([7]; 63 g ai/ha) | Pre-emerge Herbicidal Activity, phytotoxicity rating (0-100), SORHA ([20]; 63 g ai/ha)

COc1c(Cl)cc(F)c(-n2c(=O)cc(C(F)(F)F)n(C)c2=O)c1NC(=O)c1c(F)cccc1F [2-47]
60: Pre-emerge Herbicidal Activity, phytotoxicity rating (0-100), SORHA ([20]; 63 g ai/ha)
45: phytotoxicity rating RICE ([24]; 250 g ai/ha)
90: phytotoxicity rating AMARE ([2]; 63 g ai/ha) | phytotoxicity rating AMBEL ([6]; 250 g ai/ha) | Pre-emerge Herbicidal Activity, phytotoxicity rating (0-100), CASOB ([18]; 63 g ai/ha) | Pre-emerge Herbicidal Activity, phytotoxicity rating (0-100), SORHA ([20]; 250 g ai/ha)
0: phytotoxicity rating DIGSA ([8]; 63 g ai/ha) | phytotoxicity rating DIGSA ([8]; 250 g ai/ha) | phytotoxicity rating ECHCG ([10]; 63 g ai/ha) | phytotoxicity rating SORHA ([11]; 63 g ai/ha) | phytotoxicity rating SORHA ([11]; 250 g ai/ha) | Pre-emerge Herbicidal Activity, phytotoxicity rating (0-100), ECHCG ([19]; 63 g ai/ha)
30: phytotoxicity rating SETVI ([4]; 250 g ai/ha)
95: Pre-emerge phytotoxicity rating (0-100), crop damage, RICE ([22]; 250 g ai/ha)
100: Pre-emerge Herbicidal Activity, phytotoxicity rating (0-100), AMARE ([1]; 63 g ai/ha) | Pre-emerge Herbicidal Activity, phytotoxicity rating (0-100), AMARE ([1]; 250 g ai/ha) | phytotoxicity rating AMARE ([2]; 250 g ai/ha) | phytotoxicity rating ABUTH ([3]; 63 g ai/ha) | phytotoxicity rating ABUTH ([3]; 250 g ai/ha) | phytotoxicity rating CHEAL ([5]; 250 g ai/ha) | phytotoxicity rating IPOHE ([7]; 250 g ai/ha) | phytotoxicity rating CASOB ([9]; 250 g ai/ha) | Pre-emerge Herbicidal Activity, phytotoxicity rating (0-100), ABUTH ([12]; 63 g ai/ha) | Pre-emerge Herbicidal Activity, phytotoxicity rating (0-100), ABUTH ([12]; 250 g ai/ha) | Pre-emerge Herbicidal Activity, phytotoxicity rating (0-100), SETVI ([13]; 63 g ai/ha) | Pre-emerge Herbicidal Activity, phytotoxicity rating (0-100), SETVI ([13]; 250 g ai/ha) | Pre-emerge Herbicidal Activity, phytotoxicity rating (0-100), CHEAL ([14]; 63 g ai/ha) | Pre-emerge Herbicidal Activity, phytotoxicity rating (0-100), CHEAL ([14]; 250 g ai/ha) | Pre-emerge Herbicidal Activity, phytotoxicity rating (0-100), AMBEL ([15]; 250 g ai/ha) | Pre-emerge Herbicidal Activity, phytotoxicity rating (0-100), IPOHE ([16]; 63 g ai/ha) | Pre-emerge Herbicidal Activity, phytotoxicity rating (0-100), IPOHE ([16]; 250 g ai/ha) | Pre-emerge Herbicidal Activity, phytotoxicity rating (0-100), DIGSA ([17]; 63 g ai/ha) | Pre-emerge Herbicidal Activity, phytotoxicity rating (0-100), DIGSA ([17]; 250 g ai/ha) | Pre-emerge Herbicidal Activity, phytotoxicity rating (0-100), CASOB ([18]; 250 g ai/ha)
20: phytotoxicity rating SETVI ([4]; 63 g ai/ha) | phytotoxicity rating RICE ([24]; 63 g ai/ha)
40: Pre-emerge phytotoxicity rating (0-100), crop damage, CORN ([21]; 63 g ai/ha)
99: Pre-emerge Herbicidal Activity, phytotoxicity rating (0-100), ECHCG ([19]; 250 g ai/ha) | Pre-emerge phytotoxicity rating (0-100), crop damage, CORN ([21]; 250 g ai/ha)
80: phytotoxicity rating CHEAL ([5]; 63 g ai/ha)
10: phytotoxicity rating ECHCG ([10]; 250 g ai/ha) | phytotoxicity rating CORN ([23]; 63 g ai/ha)
15: phytotoxicity rating CORN ([23]; 250 g ai/ha)
50: phytotoxicity rating AMBEL ([6]; 63 g ai/ha) | Pre-emerge Herbicidal Activity, phytotoxicity rating (0-100), AMBEL ([15]; 63 g ai/ha)
70: phytotoxicity rating IPOHE ([7]; 63 g ai/ha) | phytotoxicity rating CASOB ([9]; 63 g ai/ha) | Pre-emerge phytotoxicity rating (0-100), crop damage, RICE ([22]; 63 g ai/ha)
